# Source: paper PMC11864979, “First-in-class ultralong-target-residence-time p38α inhibitors as a mitosis-targeted therapy for colorectal cancer” (Nature Cancer, 2025)
# Where two headings read alike, the source gives them in different places.
# Legend:
# Test in all cases: selectivity profiling in a panel of 340 wild-type kinases (Reaction Biology Europe)
# Format in all cases: binding
# 340 wild-type kinases [1] = molecular target: T1, 340 wild-type kinases (Homo sapiens, UniProt Q9BYP7)
# T1 construct: purchased Reaction Biology Europe
# T1 sequence (Q9BYP7 whole entry): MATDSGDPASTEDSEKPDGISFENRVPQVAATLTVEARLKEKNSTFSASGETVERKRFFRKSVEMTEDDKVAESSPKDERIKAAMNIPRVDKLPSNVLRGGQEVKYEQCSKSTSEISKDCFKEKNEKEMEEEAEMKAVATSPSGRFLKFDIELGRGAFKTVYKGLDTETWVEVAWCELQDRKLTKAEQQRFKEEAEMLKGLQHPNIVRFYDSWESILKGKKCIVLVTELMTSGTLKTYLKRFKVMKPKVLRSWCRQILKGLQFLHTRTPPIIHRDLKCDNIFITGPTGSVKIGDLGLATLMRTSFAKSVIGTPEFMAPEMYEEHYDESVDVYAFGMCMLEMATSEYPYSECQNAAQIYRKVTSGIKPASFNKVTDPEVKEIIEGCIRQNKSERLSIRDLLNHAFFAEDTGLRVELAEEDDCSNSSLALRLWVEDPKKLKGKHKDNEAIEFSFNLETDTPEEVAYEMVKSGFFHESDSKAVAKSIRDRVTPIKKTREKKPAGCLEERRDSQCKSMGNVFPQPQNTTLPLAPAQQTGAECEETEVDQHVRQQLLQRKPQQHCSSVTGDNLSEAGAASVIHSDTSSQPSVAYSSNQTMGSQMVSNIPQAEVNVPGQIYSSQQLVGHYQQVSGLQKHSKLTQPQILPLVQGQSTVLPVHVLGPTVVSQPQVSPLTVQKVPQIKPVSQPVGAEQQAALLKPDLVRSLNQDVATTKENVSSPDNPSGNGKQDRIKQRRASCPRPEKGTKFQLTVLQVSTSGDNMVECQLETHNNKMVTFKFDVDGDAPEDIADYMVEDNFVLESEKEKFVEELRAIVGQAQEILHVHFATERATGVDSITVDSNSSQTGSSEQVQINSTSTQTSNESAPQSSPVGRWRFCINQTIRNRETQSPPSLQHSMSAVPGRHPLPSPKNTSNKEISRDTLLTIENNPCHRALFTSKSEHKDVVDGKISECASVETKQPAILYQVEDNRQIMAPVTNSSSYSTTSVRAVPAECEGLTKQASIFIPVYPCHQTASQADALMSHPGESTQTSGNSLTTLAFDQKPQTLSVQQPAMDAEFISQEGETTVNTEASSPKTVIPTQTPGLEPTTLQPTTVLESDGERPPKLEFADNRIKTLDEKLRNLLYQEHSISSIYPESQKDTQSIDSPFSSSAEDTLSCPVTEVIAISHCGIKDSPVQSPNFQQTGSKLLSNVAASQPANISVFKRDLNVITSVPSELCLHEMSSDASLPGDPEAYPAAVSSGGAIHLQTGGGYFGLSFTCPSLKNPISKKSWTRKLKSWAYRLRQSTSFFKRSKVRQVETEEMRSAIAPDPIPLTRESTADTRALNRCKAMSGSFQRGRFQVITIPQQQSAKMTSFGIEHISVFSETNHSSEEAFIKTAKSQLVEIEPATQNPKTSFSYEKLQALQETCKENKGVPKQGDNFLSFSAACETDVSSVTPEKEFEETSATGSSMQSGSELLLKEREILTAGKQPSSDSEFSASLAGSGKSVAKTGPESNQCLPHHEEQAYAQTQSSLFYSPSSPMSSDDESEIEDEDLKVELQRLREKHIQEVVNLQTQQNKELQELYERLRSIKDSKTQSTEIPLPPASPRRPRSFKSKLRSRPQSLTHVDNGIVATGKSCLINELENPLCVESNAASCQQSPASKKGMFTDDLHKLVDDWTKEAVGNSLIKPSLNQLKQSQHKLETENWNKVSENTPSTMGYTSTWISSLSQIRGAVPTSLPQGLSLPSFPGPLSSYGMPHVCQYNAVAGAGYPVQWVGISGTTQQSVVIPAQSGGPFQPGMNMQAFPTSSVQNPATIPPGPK
# 340 wild-type kinases [2] = molecular target: T2, 340 wild-type kinases (Homo sapiens, UniProt Q13177)
# T2 construct: purchased Reaction Biology Europe
# 340 wild-type kinases [3] = molecular target: T3, 340 wild-type kinases (Homo sapiens, UniProt Q9UEW8)
# T3 construct: purchased Reaction Biology Europe
# 340 wild-type kinases [4] = molecular target: T4, 340 wild-type kinases (Homo sapiens, UniProt P31751)
# T4 construct: purchased Reaction Biology Europe
# 340 wild-type kinases [5] = molecular target: T5, 340 wild-type kinases (Homo sapiens, UniProt Q96BR1)
# T5 construct: purchased Reaction Biology Europe
# T5 sequence (Q96BR1 1-496): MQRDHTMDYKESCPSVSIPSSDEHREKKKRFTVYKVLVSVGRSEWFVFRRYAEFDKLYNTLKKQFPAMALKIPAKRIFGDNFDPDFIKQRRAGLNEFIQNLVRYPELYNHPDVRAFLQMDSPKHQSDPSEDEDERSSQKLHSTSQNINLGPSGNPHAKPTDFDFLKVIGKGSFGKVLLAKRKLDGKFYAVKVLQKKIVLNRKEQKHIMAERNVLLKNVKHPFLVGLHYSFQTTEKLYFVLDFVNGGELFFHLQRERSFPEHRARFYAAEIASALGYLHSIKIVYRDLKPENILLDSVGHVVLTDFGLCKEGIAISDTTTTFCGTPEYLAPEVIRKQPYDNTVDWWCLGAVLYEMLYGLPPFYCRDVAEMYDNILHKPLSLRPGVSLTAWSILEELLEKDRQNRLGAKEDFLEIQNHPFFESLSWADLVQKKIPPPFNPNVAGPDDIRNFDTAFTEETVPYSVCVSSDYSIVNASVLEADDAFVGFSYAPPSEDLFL
# 340 wild-type kinases [6] = molecular target: T6, 340 wild-type kinases (Homo sapiens, UniProt Q96KB5)
# T6 construct: purchased Reaction Biology Europe
# T6 sequence (Q96KB5 1-322): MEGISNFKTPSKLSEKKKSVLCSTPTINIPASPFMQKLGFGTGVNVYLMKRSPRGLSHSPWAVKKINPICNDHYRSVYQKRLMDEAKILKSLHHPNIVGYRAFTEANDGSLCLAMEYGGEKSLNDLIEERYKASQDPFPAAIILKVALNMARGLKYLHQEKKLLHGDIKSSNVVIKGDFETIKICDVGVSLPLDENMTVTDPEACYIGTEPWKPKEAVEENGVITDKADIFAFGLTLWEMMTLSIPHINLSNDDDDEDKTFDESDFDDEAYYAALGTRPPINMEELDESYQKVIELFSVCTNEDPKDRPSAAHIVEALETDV
# 340 wild-type kinases [7] = molecular target: T7, 340 wild-type kinases (Homo sapiens, UniProt P05129)
# T7 construct: purchased Reaction Biology Europe
# 340 wild-type kinases [8] = molecular target: T8, 340 wild-type kinases (Homo sapiens, UniProt P54764)
# T8 construct: purchased Reaction Biology Europe
# T8 sequence (P54764 20-986): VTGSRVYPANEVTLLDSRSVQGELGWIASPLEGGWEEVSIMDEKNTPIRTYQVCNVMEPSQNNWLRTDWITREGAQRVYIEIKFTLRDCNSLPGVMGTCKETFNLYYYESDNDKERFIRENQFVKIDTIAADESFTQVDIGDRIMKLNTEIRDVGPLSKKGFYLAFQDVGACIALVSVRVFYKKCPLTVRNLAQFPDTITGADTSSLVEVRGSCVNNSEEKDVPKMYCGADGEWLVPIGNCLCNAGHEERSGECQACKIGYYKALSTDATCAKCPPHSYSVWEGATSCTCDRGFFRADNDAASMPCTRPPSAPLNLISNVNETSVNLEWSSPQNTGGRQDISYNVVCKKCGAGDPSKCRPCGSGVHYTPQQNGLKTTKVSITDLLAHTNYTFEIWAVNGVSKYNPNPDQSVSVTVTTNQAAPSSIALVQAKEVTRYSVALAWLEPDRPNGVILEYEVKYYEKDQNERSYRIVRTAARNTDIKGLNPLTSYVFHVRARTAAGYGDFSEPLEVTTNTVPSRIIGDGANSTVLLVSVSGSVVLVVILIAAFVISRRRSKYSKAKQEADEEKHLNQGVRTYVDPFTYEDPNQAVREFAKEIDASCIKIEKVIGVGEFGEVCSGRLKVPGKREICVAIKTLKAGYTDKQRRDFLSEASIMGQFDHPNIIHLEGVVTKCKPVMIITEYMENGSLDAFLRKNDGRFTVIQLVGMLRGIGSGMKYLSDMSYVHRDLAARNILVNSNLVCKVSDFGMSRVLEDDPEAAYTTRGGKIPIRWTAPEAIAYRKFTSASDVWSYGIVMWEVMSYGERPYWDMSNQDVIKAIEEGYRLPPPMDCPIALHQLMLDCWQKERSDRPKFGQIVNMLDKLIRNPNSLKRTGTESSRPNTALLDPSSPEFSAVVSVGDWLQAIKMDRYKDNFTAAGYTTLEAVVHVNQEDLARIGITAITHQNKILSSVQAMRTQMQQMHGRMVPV
# 340 wild-type kinases [9] = molecular target: T9, 340 wild-type kinases (Homo sapiens, UniProt P19525)
# T9 construct: purchased Reaction Biology Europe
# T9 sequence (P19525 whole entry): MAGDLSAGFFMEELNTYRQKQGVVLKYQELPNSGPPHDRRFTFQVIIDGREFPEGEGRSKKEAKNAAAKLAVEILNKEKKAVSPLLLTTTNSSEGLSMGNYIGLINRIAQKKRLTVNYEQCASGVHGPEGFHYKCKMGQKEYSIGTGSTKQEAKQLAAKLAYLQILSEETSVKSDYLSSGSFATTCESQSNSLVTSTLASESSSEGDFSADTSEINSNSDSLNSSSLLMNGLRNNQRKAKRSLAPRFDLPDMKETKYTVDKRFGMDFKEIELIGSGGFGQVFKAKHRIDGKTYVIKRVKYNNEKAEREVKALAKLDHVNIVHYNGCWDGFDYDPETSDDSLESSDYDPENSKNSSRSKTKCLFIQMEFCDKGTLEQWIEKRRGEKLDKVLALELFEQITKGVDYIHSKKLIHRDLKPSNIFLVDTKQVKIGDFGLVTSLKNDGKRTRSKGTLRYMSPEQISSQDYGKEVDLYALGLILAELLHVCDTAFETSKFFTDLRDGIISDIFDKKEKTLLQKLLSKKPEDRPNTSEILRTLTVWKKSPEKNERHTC
# 340 wild-type kinases [10] = molecular target: T10, 340 wild-type kinases (Homo sapiens, UniProt Q8N5S9)
# T10 construct: purchased Reaction Biology Europe
# T10 sequence (Q8N5S9 whole entry): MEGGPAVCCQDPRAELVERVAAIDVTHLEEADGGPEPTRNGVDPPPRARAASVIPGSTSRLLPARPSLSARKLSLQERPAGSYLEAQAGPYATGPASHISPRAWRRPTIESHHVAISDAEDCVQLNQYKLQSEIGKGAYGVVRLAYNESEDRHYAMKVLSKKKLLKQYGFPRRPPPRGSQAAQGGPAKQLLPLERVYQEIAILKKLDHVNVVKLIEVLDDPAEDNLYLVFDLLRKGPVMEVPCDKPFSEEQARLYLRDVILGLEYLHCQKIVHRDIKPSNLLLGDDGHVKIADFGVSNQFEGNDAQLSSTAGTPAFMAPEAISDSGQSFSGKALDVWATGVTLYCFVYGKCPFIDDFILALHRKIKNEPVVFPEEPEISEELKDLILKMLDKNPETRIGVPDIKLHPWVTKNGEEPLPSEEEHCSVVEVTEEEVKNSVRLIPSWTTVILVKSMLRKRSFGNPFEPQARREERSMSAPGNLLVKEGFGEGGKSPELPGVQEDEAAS
# 340 wild-type kinases [11] = molecular target: T11, 340 wild-type kinases (Homo sapiens, UniProt P49841)
# T11 construct: purchased Reaction Biology Europe
# T11 sequence (P49841 whole entry): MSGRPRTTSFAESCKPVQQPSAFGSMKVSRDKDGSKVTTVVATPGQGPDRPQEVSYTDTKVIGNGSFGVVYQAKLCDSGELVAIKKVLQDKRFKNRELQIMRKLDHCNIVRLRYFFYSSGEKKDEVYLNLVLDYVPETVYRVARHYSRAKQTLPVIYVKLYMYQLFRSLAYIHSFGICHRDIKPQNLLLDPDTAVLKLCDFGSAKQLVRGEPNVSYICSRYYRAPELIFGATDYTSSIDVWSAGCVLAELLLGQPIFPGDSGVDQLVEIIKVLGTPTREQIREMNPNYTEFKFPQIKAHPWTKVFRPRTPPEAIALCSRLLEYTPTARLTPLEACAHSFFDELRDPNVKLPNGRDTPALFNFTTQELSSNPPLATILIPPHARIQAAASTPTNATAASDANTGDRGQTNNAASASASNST
smiles,measurement,setting,value
CNC(=O)c1ccc2c(c1)C(=O)c1ccc(Nc3ccc(F)c(NC(=O)C4CC4)c3)cc1CC2 [Compound 2015],remaining activity at 0.2 µM,"340 wild-type kinases [1]; 0.2 µM 2015, read-out: WNK3 residual activity",121%
same,remaining activity at 1 µM,"340 wild-type kinases [1]; 1 µM 2015, read-out: WNK3 residual activity",113%
same,remaining activity at 0.2 µM,"340 wild-type kinases [1]; WNK3, 0.2 µM, read-out: residual activity",121%
same,remaining activity at 1 µM,"340 wild-type kinases [1]; WNK3, 1 µM, read-out: residual activity",113%
same,remaining activity at 0.2 µM,"340 wild-type kinases [2]; 0.2 µM 2015, read-out: PAK2 residual activity",103%
same,remaining activity at 1 µM,"340 wild-type kinases [2]; 1 µM 2015, read-out: PAK2 residual activity",102%
same,remaining activity at 0.2 µM,"340 wild-type kinases [2]; PAK2, 0.2 µM, read-out: residual activity",103%
same,remaining activity at 1 µM,"340 wild-type kinases [2]; PAK2, 1 µM, read-out: residual activity",102%
same,remaining activity at 0.2 µM,"340 wild-type kinases [3]; 0.2 µM 2015, read-out: STK39 residual activity",109%
same,remaining activity at 1 µM,"340 wild-type kinases [3]; 1 µM 2015, read-out: STK39 residual activity",108%
same,remaining activity at 0.2 µM,"340 wild-type kinases [3]; STK39, 0.2 µM, read-out: residual activity",109%
same,remaining activity at 1 µM,"340 wild-type kinases [3]; STK39, 1 µM, read-out: residual activity",108%
same,remaining activity at 0.2 µM,"340 wild-type kinases [4]; 0.2 µM 2015, read-out: AKT2 residual activity",64.5%
same,remaining activity at 1 µM,"340 wild-type kinases [4]; 1 µM 2015, read-out: AKT2 residual activity",93%
same,remaining activity at 0.2 µM,"340 wild-type kinases [4]; AKT2, 0.2 µM, read-out: residual activity",64.5%
same,remaining activity at 1 µM,"340 wild-type kinases [4]; AKT2, 1 µM, read-out: residual activity",93%
same,remaining activity at 0.2 µM,"340 wild-type kinases [5]; 0.2 µM 2015, read-out: SGK3 residual activity",107%
same,remaining activity at 1 µM,"340 wild-type kinases [5]; 1 µM 2015, read-out: SGK3 residual activity",92.1%
same,remaining activity at 0.2 µM,"340 wild-type kinases [5]; SGK3, 0.2 µM, read-out: residual activity",107%
same,remaining activity at 1 µM,"340 wild-type kinases [5]; SGK3, 1 µM, read-out: residual activity",92%
same,remaining activity at 0.2 µM,"340 wild-type kinases [6]; 0.2 µM 2015, read-out: PBK residual activity",96.5%
same,remaining activity at 1 µM,"340 wild-type kinases [6]; 1 µM 2015, read-out: PBK residual activity",79.7%
same,remaining activity at 0.2 µM,"340 wild-type kinases [6]; PBK, 0.2 µM, read-out: residual activity",96.5%
same,remaining activity at 1 µM,"340 wild-type kinases [6]; PBK, 1 µM, read-out: residual activity",79.7%
same,remaining activity at 0.2 µM,"340 wild-type kinases [7]; 0.2 µM 2015, read-out: PKCgamma residual activity",109%
same,remaining activity at 1 µM,"340 wild-type kinases [7]; 1 µM 2015, read-out: PKCgamma residual activity",86.6%
same,remaining activity at 0.2 µM,"340 wild-type kinases [7]; PKCgamma, 0.2 µM, read-out: residual activity",109%
same,remaining activity at 1 µM,"340 wild-type kinases [7]; PKCgamma, 1 µM, read-out: residual activity",86.6%
same,remaining activity at 0.2 µM,"340 wild-type kinases [8]; 0.2 µM 2015, read-out: EPHA4 residual activity",95.1%
same,remaining activity at 1 µM,"340 wild-type kinases [8]; 1 µM 2015, read-out: EPHA4 residual activity",91.4%
same,remaining activity at 0.2 µM,"340 wild-type kinases [8]; EPHA4, 0.2 µM, read-out: residual activity",95.1%
same,remaining activity at 1 µM,"340 wild-type kinases [8]; EPHA4, 1 µM, read-out: residual activity",91.5%
same,remaining activity at 0.2 µM,"340 wild-type kinases [9]; 0.2 µM 2015, read-out: EIF2AK2 residual activity",84.5%
same,remaining activity at 1 µM,"340 wild-type kinases [9]; 1 µM 2015, read-out: EIF2AK2 residual activity",85.2%
same,remaining activity at 0.2 µM,"340 wild-type kinases [9]; EIF2AK2, 0.2 µM, read-out: residual activity",84.5%
same,remaining activity at 1 µM,"340 wild-type kinases [9]; EIF2AK2, 1 µM, read-out: residual activity",85.2%
same,remaining activity at 0.2 µM,"340 wild-type kinases [10]; 0.2 µM 2015, read-out: CAMKK1 residual activity",123%
same,remaining activity at 1 µM,"340 wild-type kinases [10]; 1 µM 2015, read-out: CAMKK1 residual activity",106%
same,remaining activity at 0.2 µM,"340 wild-type kinases [10]; CAMKK1, 0.2 µM, read-out: residual activity",123%
same,remaining activity at 1 µM,"340 wild-type kinases [10]; CAMKK1, 1 µM, read-out: residual activity",106%
same,remaining activity at 0.2 µM,"340 wild-type kinases [11]; 0.2 µM 2015, read-out: GSK3beta residual activity",98.7%
same,remaining activity at 1 µM,"340 wild-type kinases [11]; 1 µM 2015, read-out: GSK3beta residual activity",86.4%
same,remaining activity at 0.2 µM,"340 wild-type kinases [11]; GSK3beta, 0.2 µM, read-out: residual activity",98.7%
same,remaining activity at 1 µM,"340 wild-type kinases [11]; GSK3beta, 1 µM, read-out: residual activity",86.3%
